Holding throughout (test): Growth inhibition GI50 in vitro (CCK8/MTT, 72 h)
Common to all, as to type: cell-based, human

One assay concerns H1975 (EGFR L858R/T790M). Conditions: Homo sapiens, NCI-H1975; EGFR mutant cell line; range of GI50; read-out: GI50 H1975.
The test system of the next assay is HCC827 (EGFR dE746-A750). Conditions: Homo sapiens, HCC827; EGFR mutant cell line; range of GI50; read-out: GI50 HCC827.
The next assay deals with PC-9 (EGFR dE746-A750). The note with it: Homo sapiens; EGFR mutant cell line; range of GI50; read-out: GI50 PC-9.
Assay [1] relates to PC-9ER (EGFR delE746-A750/T790M). Conditions: Homo sapiens, PC-9/ER; EGFR mutant cell line; range of GI50; read-out: GI50 PC9ER.
In the next assay the test system is N87 (HER2 Amp). The note with it: Homo sapiens; HER2 positive cell line; range of GI50; read-out: GI50 N87.
A further assay concerns AU565 (Her2 amp). The note with it: Homo sapiens, AU565; HER2 positive cell line; range of GI50; read-out: GI50 AU-565.
The test system of another assay is SK-BR-3 (Her2 amp). Conditions: Homo sapiens, SK-BR-3; HER2 positive cell line; range of GI50; read-out: GI50 SK-BR-3.
Assay [2] has as its system A431 (EGFR WT, amplification and high expression). The note with it: Homo sapiens, A-431; EGFR wild type cell line; range of GI50; read-out: GI50 A431.
A further assay has as its system A549 (EGFR WT). Conditions: Homo sapiens, A549; EGFR wild type cell line; range of GI50; read-out: GI50 A549.
Assay [3] concerns H1299 (EGFR wt, Nras Q61K). The note with it: Homo sapiens, NCI-H1299; EGFR wild type cell line; range of GI50; read-out: GI50 H1299.
Assay [4] has as its system H460 (EGFR wt, Kras G61H). The note with it: Homo sapiens, NCI-H460; EGFR wild type cell line; range of GI50; read-out: GI50 H460.

The term GI50 denotes the concentration at which growth is held to half of that of the control. Regarding `C=CC(=O)Nc1cc(Nc2cc(Nc3ccc(F)c(Cl)c3)ncn2)c(OC)cc1N1CCCN(C)CC1` [Compound 144, N-(5-(6-(3-chloro-4-fluoro-phenylamino)-pyrimidin-4-ylamino)-2-(4-methyl-[1,4]diazepin-1-yl)-4-methoxyl-phenyl)-acrylamide], the concentration for 50% growth inhibition (GI50) (with H1975 (EGFR L858R/T790M); with HCC827 (EGFR dE746-A750); with PC-9 (EGFR dE746-A750); in assay [1]; with N87 (HER2 Amp); with AU565 (Her2 amp)) was less than 0.01 µM each time. Moreover, the GI50 was less than 0.01 µM with SK-BR-3 (Her2 amp); 0.01 to 0.1 µM in [2]; more than 1 µM in the assay with A549 (EGFR WT); more than 1 µM in assay [3]; more than 1 µM in assay [4].
Turning to `C=CC(=O)Nc1cc(Nc2cc(-c3cn(CC)c4ccccc34)ncn2)c(OC)cc1N(C)CCN(C)C` [Compound 181, N-{2-((2-dimethylamino-ethyl)-methylamino)-5-[6-(1-ethyl-1H-indol-3-yl)-pyrimidin-4-ylamino]-4-methoxyl-phenyl}-acrylamide], the 50% growth inhibitory concentration (GI50) is 0.01 to 0.1 µM in the assay with H1975 (EGFR L858R/T790M); less than 0.01 µM in the assay on HCC827 (EGFR dE746-A750); less than 0.01 µM in the assay on PC-9 (EGFR dE746-A750); less than 0.01 µM in assay [1]; 0.01 to 0.1 µM in the assay with N87 (HER2 Amp); 0.01 to 0.1 µM in the assay on AU565 (Her2 amp). Further, the GI50 was 0.01 to 0.1 µM in the assay with SK-BR-3 (Her2 amp); 0.1 to 1 µM in assay [2]; more than 1 µM in the assay on A549 (EGFR WT); more than 1 µM in assay [3]; more than 1 µM in assay [4].
Turning to `C=CC(=O)Nc1cc(Nc2nccc(-n3ccc4ccc(OC)cc43)n2)c(OC)cc1N(C)CCN(C)C` [Compound 58], the GI50 with H1975 (EGFR L858R/T790M) lay within 0.01 to 0.1 µM; in the assay with HCC827 (EGFR dE746-A750), 0.01 to 0.1 µM; in the assay with PC-9 (EGFR dE746-A750), 0.01 to 0.1 µM; in assay [1], 0.01 to 0.1 µM; with N87 (HER2 Amp) it was 0.1 to 1 µM; with AU565 (Her2 amp), 0.1 to 1 µM. The GI50 in the assay with SK-BR-3 (Her2 amp) was 0.1 to 1 µM; in [2], 0.1 to 1 µM; in the assay on A549 (EGFR WT), more than 1 µM; in assay [3], more than 1 µM; in assay [4], more than 1 µM.
In the case of `C=CC(=O)Nc1cc(Nc2nccc(-n3ccc4ccccc43)n2)c(OC)cc1N(C)CCN(C)C` [Compound 32], the GI50 in the assay with H1975 (EGFR L858R/T790M) is 0.01 to 0.1 µM; in the assay with HCC827 (EGFR dE746-A750), 0.01 to 0.1 µM; with PC-9 (EGFR dE746-A750), 0.01 to 0.1 µM; in [1], less than 0.01 µM; in the assay on N87 (HER2 Amp), 0.01 to 0.1 µM; with AU565 (Her2 amp), 0.01 to 0.1 µM. In addition, the GI50 in the assay with SK-BR-3 (Her2 amp) was 0.1 to 1 µM; in assay [2], 0.1 to 1 µM; with A549 (EGFR WT), more than 1 µM; in assay [3], more than 1 µM; in assay [4], more than 1 µM.
`C=CC(=O)Nc1cc(Nc2cc(Nc3ccc(F)c(Cl)c3)ncn2)c(OC)cc1N1CCC(N2CCOCC2)CC1` [Compound 143, N-(5-(6-(3-chloro-4-fluoro-phenylamino)-pyrimidin-4-ylamino)-4-methoxyl-2-(4-morpholin-4-yl-piperidin-1-yl)-phenyl)-acrylamide]: the GI50 (with H1975 (EGFR L858R/T790M); in the assay on HCC827 (EGFR dE746-A750); in the assay with PC-9 (EGFR dE746-A750); in [1]; in the assay with N87 (HER2 Amp); with AU565 (Her2 amp)) was less than 0.01 µM each time. Also, the 50% growth inhibitory concentration (GI50) was less than 0.01 µM in the assay with SK-BR-3 (Her2 amp); 0.01 to 0.1 µM in [2]; more than 1 µM with A549 (EGFR WT); more than 1 µM in assay [3]; more than 1 µM in assay [4].
Regarding `C=CC(=O)Nc1cc(Nc2nccc(Nc3cccc(F)c3)n2)c(OC)cc1N(C)CCN(C)C` [Compound 3, N-(5-(4-(3-fluoro-phenylamino)-pyrimidin-2-ylamino)-2-(2-(dimethylamino-ethyl)-methyl-amino)-4-methoxyl-phenyl)-acrylamide], the concentration for 50% growth inhibition (GI50) with H1975 (EGFR L858R/T790M) was 0.01 to 0.1 µM; in the assay on HCC827 (EGFR dE746-A750), less than 0.01 µM; with PC-9 (EGFR dE746-A750) it was less than 0.01 µM; in assay [1] it was less than 0.01 µM; in the assay with N87 (HER2 Amp), 0.01 to 0.1 µM; with AU565 (Her2 amp) it was 0.01 to 0.1 µM. The 50% growth inhibitory concentration (GI50) was 0.01 to 0.1 µM with SK-BR-3 (Her2 amp); 0.1 to 1 µM in [2]; more than 1 µM with A549 (EGFR WT); more than 1 µM in [3]; more than 1 µM in assay [4].
Consider `C=CC(=O)Nc1cc(Nc2ncnc(Nc3cccc(C(F)(F)F)c3)n2)c(OC)cc1N(C)CCN(C)C` [Compound 113, N-(5-(4-(3-trifluoromethyl-phenylamino)-[1,3,5]triazin-2-ylamino)-2-((2-dimethylamino-ethyl)-methyl-amino)-4-methoxyl-phenyl)-acrylamide], for which the GI50 in the assay on H1975 (EGFR L858R/T790M) was 0.01 to 0.1 µM; in the assay with HCC827 (EGFR dE746-A750), less than 0.01 µM; in the assay on PC-9 (EGFR dE746-A750) it was less than 0.01 µM; in [1], less than 0.01 µM; in the assay on N87 (HER2 Amp), 0.01 to 0.1 µM; in the assay on AU565 (Her2 amp) it was 0.01 to 0.1 µM. Further, the GI50 in the assay on SK-BR-3 (Her2 amp) is 0.1 to 1 µM; in assay [2], 0.1 to 1 µM; in the assay with A549 (EGFR WT), more than 1 µM; in [3], more than 1 µM; in [4], more than 1 µM.

(Values after patent US10342796B2, “Acrylanilide derivative, preparation method, and applications thereof in pharmacy” (Ancureall Pharmaceutical (Shanghai) Co., Ltd., priority 2015, dated 2019).)
